Reference: patent publication US8163776B2, “Method of immunomodulation using thione-forming disulfides” (Grassetti family Trust, priority 2001, dated 2012)
Where “and” joins values, the source holds several entries; their conditions need not be identical. Equal entries are not always repeated.

Columns and labels:
splenocytes = experiment: Total splenocyte (lymphocyte) count, trypan blue exclusion; type: in vivo, BALB/c mice; details: for Total Lymphocyte Counts: spleen
Experimental: Splenocytes were isolated by obtaining spleen from the sacrificed mice on the same experimental day, homogenizing the spleen using a 50-M mesh screen, and suspending the homogenate in 25 ml of RPMI 1640. The splenocyte suspension was washed and then spun at 1200 rpm for 5 minutes. The red blood cells were lysed by an osmotic choc with distilled water. The splenocyte suspension was washed and spun at 1200 rpm for 5 minutes. The splenocytes were suspended in complete RPMI media (90% RPMI 1640, 10% FBS, antibiotics 1×, HEPES 1 mM) and the suspension was filtered through cotton wool. Cells were counted using trypan blue exclusion method. Total splenocyte count was recorded (Table 7). Cells were kept on ice and diluted to the appropriate concentration for the corresponding experimental procedures.
To count splenocytes, two chambers of the hemacytometer were counted and the mean was calculated. The total splenocyte count was calculated by the following formula: Total splenocyte count=mean count×10 (dilution factor)×10^4×suspension volume. The mean was calculated for each control and treated group. Student's T test was performed between the control group and the treated group. The p value was calculated for statistical significance. Following spleen homogenization, the total number of splenocytes isolated was counted using a standard trypan blue method which discriminates between viable and non viable cells.

[1] = tested on: feline immunodeficiency virus (FIV); experiment: CPDS in an FIV-infected cat (Example 8); type: in vivo
Experimental: A cat infected with feline immunodeficiency virus (FIV) was given 140 mg CPDS each morning. The CPDS was mixed with the cat's chow (food). The 140 mg CDPS dosage regimen was continued for 2 weeks. At this time, the cat's overall conditions (thin facial hair, dull eyes, excorations of the skin, appetite, general behavior) improved. After the 2 week timepoint, the dosage regimen was increased to 140 mg CPDS every morning and night (280 mg CPDS daily), mixed in the cat chow. […] The cat's eyes were bright, facial hair was thick, appearance of hair was shiny, and the cat regained its appetite and gained 300 g in weight.

[2] = literature statement; cited from earlier work
[3] = tested on: antibody production to keyhole limpet hemocyanin (KLH); experiment: Humoral response to KLH immunization, immunodot blot; type: in vivo, BALB/c mice
Experimental: To perform KLH immunization, KLH was prepared in sterile D-PBS at a concentration of 150 μg in 0.1 ml. Animals were injected 0.1 ml of the preparation subcutaneously. After 15 days and just before sacrifice, a blood sample was collected from each mouse by cardiac puncture. Serum was obtained by centrifugation, aliquoted and frozen (−20° C.) until used.
Immunodot blot assay was used to assess antibody production. Hybond-ECL membrane was used in the immunodot blot assay. A volume of 2 μl of different concentrations (0, 10, 50, 250 μg/ml) of KLH antigen was placed on the dry membrane. Antigen dots were allowed to dry overnight at 4° C. Membrane was blocked with a dry milk solution for 1 hour. Two μl of the antiserum diluted ½, ¼, 1/16, 1/32, 1/64, 1/128 and undiluted was put on the blot and incubated for 1 hour. The membrane was washed with TES buffer solution 3 times. Goat anti-mouse IgG antibodies coupled with horseradish peroxidase were put on the blot and incubated for 1 hour. The membrane was washed with TBS buffer solution 3 times. […] Revelation time was 1 minute. The membrane was exposed for 18 hours to film.
The lower serum dilution where an antibody response is apparent was chosen to calculate antibody titer. The antibody titer corresponded to the inverse of the dilution. The titer was converted to log2, e.g., 8=3 (log2). Results were compared and Student's T test was performed between the control group and the treated group. The p value was calculated for statistical significance.
For this experiment, animals were treated with CPDS for 30 days, immunized subcutaneously with keyhole limpet hemocyanin (KLH) and treated an additional 15 days, at which point blood was collected for antibody detection. […] The antibody titer to KLH was 1/4.29 (2.13 log2) for control group and 1/2.00 (1.00 log2) for CPDS-treated group. The decrease in the antibody production may be partially related to the significant decrease in the B cell population observed in the immunophenotyping results. However, no loss of reactivity was observed from the lymphoproliferative assay when B cells were stimulated with LPS.

Question: Which results are given for `O=C(O)c1ccc(SSc2ccc(C(=O)O)cn2)nc1` [CPDS, 6,6′-dithiodinicotinic acid]?
Answer: Total Lymphocyte Counts, variation (splenocytes; Group 2, 30 days on CPDS diet vs group 1 (normal diet)): −15.58%; Total Lymphocyte Counts (splenocytes; Group 2, 30 days on CPDS diet, group Mean): 5.01 × 10^7; Total Lymphocyte Counts (splenocytes; Group 2, 30 days on CPDS diet, individual mice): 3.94 × 10^7 and 5.18 × 10^7 and 6.03 × 10^7 and 4.47 × 10^7 and 5.54 × 10^7 and 5.91 × 10^7 and 4.77 × 10^7 and 4.25 × 10^7; Total Lymphocyte Counts, variation (splenocytes; Group 6, 6 days on CPDS diet vs group 5 (normal diet)): −30.97%; Total Lymphocyte Counts (splenocytes; Group 6, 6 days on CPDS diet, group Mean): 4.16 × 10^7; Total Lymphocyte Counts (splenocytes; Group 6, 6 days on CPDS diet, individual mice): 3.08 × 10^7 and 4.58 × 10^7; Necrosis or loss of splenocyte viability (splenocytes; after 6 and 30 days CPDS diet): No signs of necrosis or loss of splenocyte viability were observed; Cat's overall conditions (facial hair, eyes, skin, appetite, general behavior) ([1]; FIV-infected cat, 140 mg CPDS each morning in chow for 2 weeks): improved; Physical condition, appearance and behavior ([1]; FIV-infected cat, 280 mg CPDS daily for a total of 59 days): improved physical condition, improved overall physical appearance, and improved behavior; Weight gained by the cat ([1]; FIV-infected cat, after 30 days): 300 g; Cat's overall conditions ([1]; FIV-infected cat, after 30 days, 280 mg CPDS daily after week 2): overall conditions had improved; Health of the cat at follow-up ([1]; after treatment for 100 days and a year and half after treatment): appeared entirely healthy; Toxicity [2]: low toxicity; Humoral response to KLH, variation (%) ([3]; Group 4, 45 days on CPDS diet vs Group 3): −52.94%; Serum dilution (lowest with apparent antibody response to KLH) ([3]; Group 4, 45 days on CPDS diet, KLH s.c. at day 30, serum 15 days later, individual mice): 1/4 (4×) and 0 (4×); dilution log 2 (antibody titer to KLH) ([3]; Group 4, 45 days on CPDS diet, Mean ± S.D.): 1.00 log 2 and 1.00 ± 1.07 log 2; dilution log 2 (antibody titer to KLH) ([3]; Group 4, 45 days on CPDS diet, individual mice): 2 log 2 (4×) and 0 log 2 (4×)
